Patent US20220241413A1, “COMBINATION THERAPIES USING CD-38 ANTIBODIES” (Takeda Pharmaceutical Company Limited, priority 2019, published 2022)

Experiments:
[1] = system: relapsed and refractory multiple myeloma (RRMM); assay: AB79-1501 study, AB79 monotherapy SC in RRMM: disease response; type: in vivo, human; details: at the RP2D, anti-CD38 naïve patients who received at least cycle 1
Description: The AB79-1501 study is a Phase 1b/2a multicenter, open-label, dose-escalation, single-arm study in patients with relapsed and refractory multiple myeloma (RRMM), who were previously treated with at least a proteasome inhibitor (PI), an immunomodulatory drug (IMiD), an alkylating agent, and a steroid. Patients eligible for study enrollment are refractory or intolerant to at least one PI and at least one IMiD, and have received either ≥3 prior therapies or ≥2 prior therapies, if one of those therapies included a combination of a PI and an IMiD. In the phase 1b dose-escalation part of the study, patients who were previously exposed to an anti-CD38 agent are eligible; however, this criterion is not required. In the phase 2a expansion part of the study, patients were also refractory to at least one anti-CD38 monoclonal therapy at any time during prior treatment. The study was designed to evaluate the safety and tolerability of subcutaneously administered AB79 monotherapy in patients with RRMM, to determine the recommended phase 2 dose (RP2D), and to provide a preliminary assessment of its single-agent activity against RRMM, including in patients who are refractory to daratumumab. Parameters such as safety, tolerability, pharmacokinetics (PK), pharmacodynamics, and disease response were assessed.
As of the data cutoff, nineteen (19) patients were treated in the dose-escalation portion of the ongoing study in patients with RRMM and have completed at least 1 cycle: 4 patients in the first cohort (45 mg); 3 patients in the second cohort (135 mg); 6 patients in the third cohort (300 mg); and 6 patients in the fourth cohort (600 mg). The most common TEAEs (in ≥10% of patients) regardless of causality in the total population as of this date are fatigue and upper respiratory infection (27% each), insomnia (22%), diarrhea and nausea (17% each), headache and anemia (15% each), neutropenia, abdominal distension, back pain, and hypertension (12% each), cough and pneumonia (10% each). […] The RP2D was determined to be 600 mg with AB79 monotherapy. […]

[2] = system: peripheral blood NK cells; assay: Phase 1 study in healthy subjects (AB79-101): NK cell levels; type: in vivo, human; details: all subjects receiving a single 0.06 mg/kg IV dose
Method: In a phase 1 study in healthy subjects (Study AB79-101), AB79 reduced the levels of peripheral blood and natural killer (NK) cells >90% from baseline in all subjects receiving a single 0.06 mg/kg IV dose of AB79, with a maximum observed concentration (Cmax) of 0.1 μg/mL. (U.S. Pat. No. 8,362,211; U.S. International Patent Application Serial Nos. PCT/US2019/013547 and PCT/US2019/024431). […] Potent reduction of plasmablasts was observed across cohorts of patients in the RRMM trial (Study AB79-1501). […] Consequently, AB79 may be more efficient at eliminating cells expressing high levels of CD38, which could manifest as higher activity on tumor cells (e.g., improved and deeper response rates across a population of patients with myeloma).
AB79 IV reduced the levels of peripheral blood NK cells >90% from baseline levels in all subjects receiving a single 0.06 mg/kg IV dose, with a Cmax of 0.1 μg/mL. […] As a potent and convenient second-generation anti-CD38 mAb, AB79 SC warranted therapeutic development for the treatment of multiple myeloma (MM).

AB79: anti-CD38 monoclonal IgG1 antibody; heavy chain SEQ ID NO:11, light chain SEQ ID NO:12
clinical benefit rate (minor response or better) [1]: 73% | disease control rate (stable disease or better) [1]: 91% | preliminary objective response rate (ORR) [1]: 36% | reduction of levels of peripheral blood NK cells from baseline [2]: > 90%
